Measured values published in patent publication US20220305012A1, “L[…] TREATING SLEEP ISSUES” (EISAI R&D MANAGEMENT CO., LTD., priority 2019, published 2022).

How the values were obtained:
Format in all cases: in vivo, human
[1] = test system: Subjects Having Insomnia Disorder; assay: Example 3: proportion of subjects whose ISI Total Score decreased and was <10 (pooled); settings: for percentage of subjects whose ISI Total Score decreased at month 1 and was less than 10: end of month 1, pooled Examples 1 and 2; for Responder No: subjects whose Insomnia Severity Index Total Score decreased from Baseline to Month 1 and was <10 / Responder Yes: subjects whose Insomnia Severity Index Total Score decreased from Baseline to Month 1 and was <10: Full Analysis Set, Examples 1 and 2; for Responder No: subjects whose Insomnia Severity Index Total Score decreased from Baseline to Month 1 and was <10 / Responder Yes: subjects whose Insomnia Severity Index Total Score decreased from Baseline to Month 1 and was <10 / Difference of proportion of responders vs. Placebo: Month 1; for Difference of proportion of responders vs. Placebo: ISI Total Score decreased and <10
Procedure: (§1) The data collected in studies described in Example 1 and Example 2 were pooled and the response of each subject was analyzed.
Table 32 provides the summary and analysis of responders, defined as those subjects whose Total ISI Score decreased at the end of month 1 by 7 or more points compared to baseline. Table 33 provides the summary and analysis of responders, defined as those subjects whose ISI Total Score decreased compared to baseline and was less than 10 at month 1.

[2] = test system: Subjects Having Insomnia Disorder; assay: Example 1: treatment-emergent adverse events; settings: for TEAEs: Safety Analysis Set
Procedure: Subjects were randomized in a double-blind manner and received either placebo, 5 mg of lemborexant, or 10 mg of lemborexant (approximately 1:1:1 randomization). All subjects underwent routine safety monitoring through the study, including assessments of treatment-emergent adverse events, 12-lead electrocardiograms, vital signs, weight, and clinical hematology and blood chemistry labs. Suicidality was assessed using the eC-SSRS.
Safety endpoints for this study included the safety and tolerability of lemborexant (1) compared to placebo (during treatment period 1) and (2) in subjects exposed to lemborexant for 3, 6, 9, and 12 months.

[3] = test system: Subjects Having Insomnia Disorder; assay: Example 3: proportion of sWASO responders (pooled Examples 1 and 2)
Procedure: as §1

[4] = test system: Subjects Having Insomnia Disorder; assay: Example 2: REM latency; settings: both doses (FIG. 16)
[5] = test system: Subjects Having Insomnia Disorder; assay: Example 2: duration of long awakenings; settings: both doses; relative to placebo, compared with zolpidem ER (FIG. 12)
[6] = test system: Subjects Having Insomnia Disorder; assay: Example 1: Morning Sleepiness rating (scale 1 to 9); settings: for Morning Sleepiness score, Mean (SD): Baseline; for Morning Sleepiness score, Treatment difference (vs placebo): change from baseline at Month 6
Text: In some embodiments, sleep diaries were used to assess sleep parameters reported by subjects (i.e., subjective assessments) including subjective sleep onset latency (sSOL), subjective sleep efficiency (sSE), subjective WASO (sWASO), and subjective total sleep time (sTST). Subjects were instructed to complete the Sleep Diary developed based on the consensus Sleep Diary as described in Carney et al., “The consensus sleep diary: standardizing prospective sleep self-monitoring,” Sleep 2012; 35(2):287-302. In some embodiments, the Sleep Diary was used to assess the subject's global perception of quality of sleep on the previous night with the following question: “How would you rate the quality of your sleep last night?” Subjects rated the quality of their sleep on a scale from 1 to 9, with 1 being extremely poor and 9 being extremely good. In some embodiments, the Sleep Diary was used to assess subjective ratings of morning sleepiness with the following question: “How alert/sleepy do you feel this morning?” Subjects rated their sleepiness/alertness level on a Likert scale from 1 to 9, with 1 being extremely sleepy and 9 being extremely alert.
Treatment period 1 began with the first dose of randomized study medication (placebo, 5 mg of lemborexant, or 10 mg of lemborexant). Subjects completed sleep diaries daily in the morning, within one hour of waketime. The subjects were assessed by a clinician one month, two months, three months, and six months after initiation of Treatment period 1.

[7] = First 7 Days, Lemborexant 10 mg

Structure (SMILES): Cc1ncc(OC[C@@]2(c3cccc(F)c3)C[C@H]2C(=O)Nc2ccc(F)cn2)c(C)n1 [Lemborexant, (1R,2S)-2-(((2,4-dimethylpyrimidin-5-yl)oxy)methyl)-2-(3-fluorophenyl)-N-(5-fluoropyridin-2-yl)cyclopropanecarboxamide]
- percentage of subjects whose ISI Total Score decreased at month 1 and was less than 10 ([1]; 5 mg): 33.0%
- percentage of subjects whose ISI Total Score decreased at month 1 and was less than 10 ([1]; 10 mg): 33.4%
- Responder No: subjects whose Insomnia Severity Index Total Score decreased from Baseline to Month 1 and was <10 ([1]; Lemborexant 5 mg (N = 582)): 366 (62.9) n (%)
- Responder Yes: subjects whose Insomnia Severity Index Total Score decreased from Baseline to Month 1 and was <10 ([1]; Lemborexant 5 mg (N = 582)): 192 (33.0) n (%)
- Difference of proportion of responders vs. Placebo ([1]; Lemborexant 5 mg vs placebo): 12.44
- Responder No: subjects whose Insomnia Severity Index Total Score decreased from Baseline to Month 1 and was <10 ([1]; Lemborexant 10 mg (N = 584)): 345 (59.1) n (%)
- Responder Yes: subjects whose Insomnia Severity Index Total Score decreased from Baseline to Month 1 and was <10 ([1]; Lemborexant 10 mg (N = 584)): 195 (33.4) n (%)
- Difference of proportion of responders vs. Placebo ([1]; Lemborexant 10 mg vs placebo): 12.71
- difference of proportion of responders (ISI Total Score decreased and less than 10) versus placebo ([1]; both doses, month 1 (Table 33)): statistically significant
- Deaths ([2]; 5 mg (N = 314)): 0 n (%)
- Other SAEs ([2]; 5 mg (N = 314)): 7 (2.2) n (%)
- SAEs: Congenital anomaly/birth defect ([2]; 5 mg (N = 314)): 0 n (%)
- SAEs: Important medical events ([2]; 5 mg (N = 314)): 1 (0.3) n (%)
- SAEs: Life threatening ([2]; 5 mg (N = 314)): 0 n (%)
- SAEs: Persistent or significant disability or incapacity ([2]; 5 mg (N = 314)): 0 n (%)
- SAEs: Requires inpatient hospitalization or prolongation of existing hospitalization ([2]; 5 mg (N = 314)): 6 (1.9) n (%)
- Serious TEAEs ([2]; 5 mg (N = 314)): 7 (2.2) n (%)
- Severe TEAEs ([2]; 5 mg (N = 314)): 13 (4.1) n (%)
- TEAEs leading to study dose reduced ([2]; 5 mg (N = 314)): 0 n (%)
- TEAEs leading to study drug dose adjustment ([2]; 5 mg (N = 314)): 25 (8.0) n (%)
- TEAEs leading to study drug interrupted ([2]; 5 mg (N = 314)): 13 (4.1) n (%)
- TEAEs leading to study drug withdrawal ([2]; 5 mg (N = 314)): 13 (4.1) n (%)
- Treatment-related TEAEs ([2]; 5 mg (N = 314)): 78 (24.8) n (%)
- TEAEs ([2]; 5 mg (N = 314)): 192 (61.1) n (%)
- Deaths ([2]; 10 mg (N = 314)): 0 n (%)
- Other SAEs ([2]; 10 mg (N = 314)): 9 (2.9) n (%)
- SAEs: Congenital anomaly/birth defect ([2]; 10 mg (N = 314)): 0 n (%)
- SAEs: Important medical events ([2]; 10 mg (N = 314)): 0 n (%)
- SAEs: Life threatening ([2]; 10 mg (N = 314)): 0 n (%)
- SAEs: Persistent or significant disability or incapacity ([2]; 10 mg (N = 314)): 0 n (%)
- SAEs: Requires inpatient hospitalization or prolongation of existing hospitalization ([2]; 10 mg (N = 314)): 9 (2.9) n (%)
- Serious TEAEs ([2]; 10 mg (N = 314)): 9 (2.9) n (%)
- Severe TEAEs ([2]; 10 mg (N = 314)): 8 (2.5) n (%)
- TEAEs leading to study dose reduced ([2]; 10 mg (N = 314)): 0 n (%)
- TEAEs leading to study drug dose adjustment ([2]; 10 mg (N = 314)): 33 (10.5) n (%)
- TEAEs leading to study drug interrupted ([2]; 10 mg (N = 314)): 8 (2.5) n (%)
- TEAEs leading to study drug withdrawal ([2]; 10 mg (N = 314)): 26 (8.3) n (%)
- Treatment-related TEAEs ([2]; 10 mg (N = 314)): 91 (29.0) n (%)
- TEAEs ([2]; 10 mg (N = 314)): 187 (59.6) n (%)
- safety and tolerability (incidence of adverse events) ([2]; Example 1 (Table 11)): safe and well-tolerated
- Subjective Wake After Sleep Onset Responder, No, n (%) ([3]; First 7 Days, Lemborexant 5 mg): 420 (81.1) n (%)
- Subjective Wake After Sleep Onset Responder, Yes, n (%) ([3]; First 7 Days, Lemborexant 5 mg): 91 (17.6) n (%)
- Subjective Wake After Sleep Onset Responders, Difference of proportion vs. Placebo ([3]; First 7 Days, Lemborexant 5 mg): 6.15
- Subjective Wake After Sleep Onset Responder, No, n (%) [3, 7]: 411 (79.5) n (%)
- Subjective Wake After Sleep Onset Responder, Yes, n (%) [3, 7]: 100 (19.3) n (%)
- Subjective Wake After Sleep Onset Responders, Difference of proportion vs. Placebo [3, 7]: 7.84
- Subjective Wake After Sleep Onset Responder, No, n (%) ([3]; Month 1, Lemborexant 5 mg): 372 (71.8) n (%)
- Subjective Wake After Sleep Onset Responder, Yes, n (%) ([3]; Month 1, Lemborexant 5 mg): 121 (23.4) n (%)
- Subjective Wake After Sleep Onset Responders, Difference of proportion vs. Placebo ([3]; Month 1, Lemborexant 5 mg): 5.61
- Subjective Wake After Sleep Onset Responder, No, n (%) ([3]; Month 1, Lemborexant 10 mg): 368 (71.2) n (%)
- Subjective Wake After Sleep Onset Responder, Yes, n (%) ([3]; Month 1, Lemborexant 10 mg): 122 (23.6) n (%)
- Subjective Wake After Sleep Onset Responders, Difference of proportion vs. Placebo ([3]; Month 1, Lemborexant 10 mg): 5.96
- proportion of sWASO responders compared with placebo ([3]; both doses, first 7 days and end of month 1, responder: sWASO of 60 or less minutes and reduction of at least 10 minutes, baseline >60 minutes (Table 31)): statistically significantly superior
- REM latency [4]: greater mean decrease in REM latency compared to treatment with placebo and zolpidem ER
- length of long awakenings [5]: greater reduction in the length of long awakenings than treatment with zolpidem ER
- Morning Sleepiness score, Mean (SD) ([6]; 5 mg): 3.93 (1.35)
- Morning Sleepiness score, Treatment difference (vs placebo) ([6]; 5 mg): 0.15
- Morning Sleepiness score, Mean (SD) ([6]; 10 mg): 3.93 (1.32)
- Morning Sleepiness score, Treatment difference (vs placebo) ([6]; 10 mg): 0.26
- morning sleepiness compared with placebo ([6]; at 6 months (Table 8)): significantly improved
